Tests used:
[1] = 10 mg tablets swallowed at two hour intervals; cited from earlier work
[2] = cited from earlier work
[3] = during cigarette smoking; cited from earlier work
[4] = in vivo; cited from earlier work
[5] = Element placed in the mouth: subjectively reported nicotine pulse sensation; assay type: in vivo, humans; conditions: equivalent amounts of nicotine
Source text: The experiments of Examples 1-16 above describe the physiological effects of consuming a measured (calculated) dose of nicotine in the manner of the instant invention. Moreover, the inventor has found a distinct physiological and mental sensation associated with the administration of one or more nicotine doses. This is believed to strongly resemble the physiological and mental sensation associated with inhaling a puff of the smoke of burning tobacco, which it is believed have some pleasurable component or consideration thereof on the part of the recipient. There is believed to be some longer-lasting physiological and/or mental satisfaction, or lack of further nicotine effect desire, after one or more administrations of nicotine, just as is the case for most people after smoking a part or all of one or more cigarettes.
The examples as described above are of necessity reported in a subjective manner.

[6] = pH less than 7; cited from earlier work
[7] = cigarette smoking; cited from earlier work
[8] = solutions on shaved bellies of cats; cited from earlier work

In the case of CN1CCCC1c1cccnc1.O=C(O)C(O)C(O)C(=O)O (stereo not shown) [nicotine tartrate], the “effect of swallowed tablets” value [1] is listed as “only a small effect”.
In the case of CN1CCCC1c1cccnc1 (stereo not shown) [nicotine], the “confusion, memory loss and lack of alertness associated with Alzheimer's disease” value ([2]; nicotine administration) is listed as “combated the confusion, memory loss and lack of alertness”, the “local tolerability of the injection” value ([2]; subcutaneous injection, under some conditions) is listed as “severe muscular irritation” and the “discriminative sensitivity and reaction time” value ([2]; subcutaneous injection, patients with dementia of the Alzheimer type) is listed as “efficacious in improving discriminative sensitivity and reaction time”. The “arterial levels exceeding venous levels” value [3] was “six to ten”, the “mental efficiency, rapid information processing, learning, and vigilance” value [4] was “improve mental efficiency, rapid information processing, learning, and vigilance” and the “efficiency of transmucosal administration compared with smoking” value [5] was “not as efficient as smoking”. For the same compound, the bucal absorption [6] was “very slow”, the “time to carry nicotine from the lungs to the brain” value [7] was “less than 20 seconds” and the “rate of percutaneous absorption” value [8] was “much more rapidly than nicotine salts”.
